Experiments:
Format in all cases: in vivo
[1] = test system: Italian ryegrass (Lolium multiflorum); assay: Test A preemergence, visual injury rating; conditions: for Plant response rating, Ryegrass, Italian: 31 g ai/ha, 0 to 100 scale, 0 no effect, 100 complete control; for Ryegrass, Italian plant response rating: 125 g ai/ha, 0 to 100 scale (0 no effect, 100 complete control)
In short: (§1)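 Injury scores run from 0, no effect, to 100, complete control, judged by eye against untreated plants roughly 10 days after treatment. Chemicals carried a surfactant in a non-phytotoxic solvent and went onto loam–sand soil preemergence or onto one- to two-leaf seedlings postemergence.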

[2] = test system: barnyardgrass (Echinochloa crus-galli); assay: Test A preemergence, visual injury rating; conditions: for Plant response rating, Barnyardgrass: 31 g ai/ha, 0 to 100 scale, 0 no effect, 100 complete control; for Barnyardgrass plant response rating: 125 g ai/ha, 0 to 100 scale (0 no effect, 100 complete control)
In short: as §1

[3] = test system: giant foxtail (Setaria faberii); assay: Test A preemergence, visual injury rating; conditions: for Plant response rating, Foxtail, Giant: 31 g ai/ha, 0 to 100 scale, 0 no effect, 100 complete control; for Foxtail, Giant plant response rating: 125 g ai/ha, 0 to 100 scale (0 no effect, 100 complete control)
In short: as §1

kochia (Kochia scoparia) [4] = assay: Test A preemergence, visual injury rating; conditions: for Plant response rating, Kochia: 31 g ai/ha, 0 to 100 scale, 0 no effect, 100 complete control; for Kochia plant response rating: 125 g ai/ha, 0 to 100 scale (0 no effect, 100 complete control)
In short: as §1

[5] = test system: pigweed (Amaranthus retroflexus); assay: Test A preemergence, visual injury rating; conditions: for Plant response rating, Pigweed: 31 g ai/ha, 0 to 100 scale, 0 no effect, 100 complete control; for Pigweed plant response rating: 125 g ai/ha, 0 to 100 scale (0 no effect, 100 complete control)
In short: as §1

[6] = test system: ragweed (common ragweed, Ambrosia elatior); assay: Test A preemergence, visual injury rating; conditions: for Plant response rating, Ragweed: 31 g ai/ha, 0 to 100 scale, 0 no effect, 100 complete control; for Ragweed plant response rating: 125 g ai/ha, 0 to 100 scale (0 no effect, 100 complete control)
In short: as §1

[7] = test system: Italian ryegrass (Lolium multiflorum); assay: Test A postemergence, visual injury rating; conditions: 0 to 100 scale, 0 is no effect, 100 is complete control, approximately 10 days
In short: as §1

[8] = test system: barnyardgrass (Echinochloa crus-galli); assay: Test A postemergence, visual injury rating; conditions: 0 to 100 scale, 0 is no effect, 100 is complete control, approximately 10 days
In short: as §1

[9] = test system: blackgrass (Alopecurus myosuroides); assay: Test A postemergence, visual injury rating; conditions: 0 to 100 scale, 0 is no effect, 100 is complete control, approximately 10 days
In short: as §1

corn (Zea mays) = assay: Test A postemergence, visual injury rating; conditions: 0 to 100 scale, 0 is no effect, 100 is complete control, approximately 10 days
In short: as §1

[10] = test system: galium (catchweed bedstraw, Galium aparine); assay: Test A postemergence, visual injury rating; conditions: 0 to 100 scale, 0 is no effect, 100 is complete control, approximately 10 days
In short: as §1

[11] = test system: giant foxtail (Setaria faberii); assay: Test A postemergence, visual injury rating; conditions: 0 to 100 scale, 0 is no effect, 100 is complete control, approximately 10 days
In short: as §1

kochia (Kochia scoparia) [12] = assay: Test A postemergence, visual injury rating; conditions: 0 to 100 scale, 0 is no effect, 100 is complete control, approximately 10 days
In short: as §1

[13] = test system: pigweed (Amaranthus retroflexus); assay: Test A postemergence, visual injury rating; conditions: 0 to 100 scale, 0 is no effect, 100 is complete control, approximately 10 days
In short: as §1

[14] = test system: ragweed (common ragweed, Ambrosia elatior); assay: Test A postemergence, visual injury rating; conditions: 0 to 100 scale, 0 is no effect, 100 is complete control, approximately 10 days
In short: as §1

[15] = test system: wheat (Triticum aestivum); assay: Test A postemergence, visual injury rating; conditions: 0 to 100 scale, 0 is no effect, 100 is complete control, approximately 10 days
In short: as §1

[16] = test system: barnyardgrass (Echinochloa crus-galli); assay: Test B flooded paddy test, plant response rating; conditions: 250 g ai/ha; Flood; scale of 0 to 100 where 0 is no effect and 100 is complete control; 13 to 15 days
In short: (§2)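 Greenhouse pots flooded to 3 cm above soil at time of treatment received compound via the water, which stayed at that level.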

[17] = test system: ducksalad (Heteranthera limosa); assay: Test B flooded paddy test, plant response rating; conditions: 250 g ai/ha; Flood; scale of 0 to 100 where 0 is no effect and 100 is complete control; 13 to 15 days
In short: as §2

rice (Oryza sativa) = assay: Test B flooded paddy test, plant response rating; conditions: 250 g ai/ha; Flood; scale of 0 to 100 where 0 is no effect and 100 is complete control; 13 to 15 days
In short: as §2

[18] = test system: sedge, umbrella (small-flower umbrella sedge, Cyperus difformis); assay: Test B flooded paddy test, plant response rating; conditions: 250 g ai/ha; Flood; scale of 0 to 100 where 0 is no effect and 100 is complete control; 13 to 15 days
In short: as §2

Row | Compound | Plant response rating, Ryegrass, Italian [1] | Ryegrass, Italian plant response rating [1] | Plant response rating, Barnyardgrass [2] | Barnyardgrass plant response rating [2] | Plant response rating, Foxtail, Giant [3] | Foxtail, Giant plant response rating [3] | Plant response rating, Kochia (kochia (Kochia scoparia) [4]) | Kochia plant response rating (kochia (Kochia scoparia) [4]) | Plant response rating, Pigweed [5] | Pigweed plant response rating [5] | Plant response rating, Ragweed [6] | Ragweed plant response rating [6] | Ryegrass, Italian plant response rating ([7]; 31 g ai/ha) | Ryegrass, Italian plant response rating ([7]; 125 g ai/ha) | Barnyardgrass plant response rating ([8]; 31 g ai/ha) | Barnyardgrass plant response rating ([8]; 125 g ai/ha) | Blackgrass plant response rating ([9]; 31 g ai/ha) | Blackgrass plant response rating ([9]; 125 g ai/ha) | Corn plant response rating (corn (Zea mays); 31 g ai/ha) | Corn plant response rating (corn (Zea mays); 125 g ai/ha) | other results
1 | CCCCCc1c(C#N)cccc1Oc1ncc(Cl)cn1 [Compound 87] | 0 | 20 | 70 | 100 | 60 | 100 | 30 | 90 | 40 | 100 | 0 | 0 | 0 | 30 | 40 | 100 | 10 | 70 | 40 | 50 | Galium plant response rating ([10]; 31 g ai/ha): 30; Galium plant response rating ([10]; 125 g ai/ha): 70; Foxtail, Giant plant response rating ([11]; 31 g ai/ha): 40; Foxtail, Giant plant response rating ([11]; 125 g ai/ha): 90; Kochia plant response rating (kochia (Kochia scoparia) [12]; 31 g ai/ha): 100; Kochia plant response rating (kochia (Kochia scoparia) [12]; 125 g ai/ha): 100; Pigweed plant response rating ([13]; 31 g ai/ha): 40; Pigweed plant response rating ([13]; 125 g ai/ha): 60; Ragweed plant response rating ([14]; 31 g ai/ha): 0; Ragweed plant response rating ([14]; 125 g ai/ha): 0; Wheat plant response rating ([15]; 31 g ai/ha): 20; Wheat plant response rating ([15]; 125 g ai/ha): 30; Plant response rating, Barnyardgrass [16]: 50; Plant response rating, Ducksalad [17]: 100; Plant response rating, Rice (rice (Oryza sativa)): 35; Plant response rating, Sedge, Umbrella [18]: 100
2 | O=C(OCCC(F)(F)F)c1cc(Cl)ccc1Oc1ncc(Cl)cn1 [Compound 88] | 0 | 0 | 0 | 0 | 0 | 0 | 0 | 0 | 0 | 0 | 0 | 0 | 0 | 0 | 0 | 0 | 0 | 0 | 0 | 0 | Galium plant response rating ([10]; 31 g ai/ha): 0; Galium plant response rating ([10]; 125 g ai/ha): 0; Foxtail, Giant plant response rating ([11]; 31 g ai/ha): 0; Foxtail, Giant plant response rating ([11]; 125 g ai/ha): 0; Kochia plant response rating (kochia (Kochia scoparia) [12]; 31 g ai/ha): 0; Kochia plant response rating (kochia (Kochia scoparia) [12]; 125 g ai/ha): 0; Pigweed plant response rating ([13]; 31 g ai/ha): 0; Pigweed plant response rating ([13]; 125 g ai/ha): 0; Ragweed plant response rating ([14]; 31 g ai/ha): 0; Ragweed plant response rating ([14]; 125 g ai/ha): 0; Wheat plant response rating ([15]; 31 g ai/ha): 0; Wheat plant response rating ([15]; 125 g ai/ha): 0; Plant response rating, Barnyardgrass [16]: 0; Plant response rating, Ducksalad [17]: 0; Plant response rating, Rice (rice (Oryza sativa)): 20; Plant response rating, Sedge, Umbrella [18]: 0

— patent US11053204B2, “Pyrimidinyloxy benzene derivatives as herbicides” (FMC Corporation, priority 2015, dated 2021)
